Laboratory results from ChEMBL document CHEMBL6134922 (ACS Med Chem Lett, 2025).
Each block holds one compound with its values, some of them ahead of it.

Key:
[1] = Plasma protein binding in human assessed as unbound fraction at 5 uM incubated for 6 hrs by equilibrium dialysis based HPLC analysis; format: ADME, cell-free
[2] = Plasma protein binding in mouse assessed as unbound fraction at 5 uM incubated for 6 hrs by equilibrium dialysis based HPLC analysis; format: ADME, cell-free
[3] = Unbound fraction in rat brain at 5 uM incubated for 6 hrs by equilibrium dialysis based HPLC analysis; format: ADME, tissue-based
[4] = AUC in CD-1 mouse at 10 mg/kg, po measured up to 24 hrs by LC-MS/MS analysis; format: ADME, organism-based; settings: in vivo
[5] = AUC in CD-1 mouse at 10 mg/kg, ip measured up to 24 hrs by LC-MS/MS analysis; format: ADME, organism-based; settings: in vivo
[6] = Cmax in CD-1 mouse at 10 mg/kg, po measured up to 24 hrs by LC-MS/MS analysis; format: ADME, organism-based; settings: in vivo
[7] = Unbound fraction in mouse brain at 5 uM incubated for 6 hrs by equilibrium dialysis based HPLC analysis; format: ADME, tissue-based
[8] = Cmax in CD-1 mouse at 10 mg/kg, ip measured up to 24 hrs by LC-MS/MS analysis; format: ADME, organism-based; settings: in vivo
[9] = Plasma protein binding in mouse assessed as bound fraction at 5 uM incubated for 6 hrs by equilibrium dialysis based HPLC analysis
[10] = Plasma protein binding in human assessed as percent bound at 5 uM incubated for 6 hrs by equilibrium dialysis based HPLC analysis

Compound: Cc1cc(C#Cc2cccc(F)c2)cnc1NC(=O)c1cc(NC(=O)OC(C)(C)C)ccc1Cl
fraction unbound at 6 h, 5 µM [1]: > 0.999
fraction unbound at 6 h, 5 µM [2]: > 0.999

Compound: CC(C)(C)OC(=O)Nc1ccc(Cl)c(C(=O)Nc2ncc(C#Cc3ccccc3)cc2Cl)c1
fraction unbound at 6 h, 5 µM [2]: > 0.999

Compound: CC(C)(C)OC(=O)Nc1ccc(Cl)c(C(=O)Nc2ncc(C#Cc3ccccc3)cc2F)c1
plasma protein binding (% bound) [9]: 98.9%
plasma protein binding (% bound) [10]: 99.8%

Other lines, results leading:

fraction unbound at 6 h, 5 µM [3]: > 0.999
AUC at 24 h [4]: 2.27 µM·h
AUC at 24 h [5]: 12.3 µM·h
Cmax [6]: 252 nM
fraction unbound at 6 h, 5 µM [7]: 0.994
Cmax [8]: 888 nM
Compound: Cc1cc(C#Cc2ccc(F)cc2)cnc1NC(=O)c1cc(NC(=O)OC(C)(C)C)ccc1Cl

plasma protein binding (% bound) [9]: 98.7%
plasma protein binding (% bound) [10]: 99.5%
Compound: Cc1cc(C#Cc2ccccc2)cnc1NC(=O)c1cc(NC(=O)OC(C)(C)C)ccc1Cl
